Data reported in ChEMBL document CHEMBL1130814, “Synthesis of 5-thiomannose-containing oligomannoside mimics: binding abilities to concanavalin A” (Bioorg Med Chem Lett, 1998).

Assay: Dissociation constant for binding affinity towards Concanavalin A determined by fluorescence anisotropy inhibition assay

SMILES | Kd [µM]
CO[C@H]1O[C@@H](CO[C@H]2S[C@@H](CO)[C@@H](O)[C@H](O)[C@H]2O)[C@@H](O)[C@H](O[C@H]2S[C@@H](CO)[C@@H](O)[C@H](O)[C@H]2O)[C@H]1O | 376
CO[C@H]1O[C@@H](CO)[C@@H](O)[C@H](O[C@H]2S[C@@H](CO)[C@@H](O)[C@H](O)[C@H]2O)[C@H]1O | 1720
CO[C@H]1O[C@@H](CO)[C@@H](O)[C@H](O[C@H]2O[C@@H](CO)[C@@H](O)[C@H](O)[C@H]2O)[C@H]1O | 49
CO[C@H]1O[C@@H](CO[C@H]2O[C@@H](CO)[C@@H](O)[C@H](O)[C@H]2O)[C@@H](O)[C@H](O)[C@H]1O | 150
CO[C@H]1O[C@@H](CO[C@H]2S[C@@H](CO)[C@@H](O)[C@H](O)[C@H]2O)[C@@H](O)[C@H](O)[C@H]1O | 1280

These reach a lower Kd. Values come first.

Kd [µM] | SMILES
3 | CO[C@H]1O[C@@H](CO[C@H]2O[C@@H](CO)[C@@H](O)[C@H](O)[C@H]2O)[C@@H](O)[C@H](O[C@H]2O[C@@H](CO)[C@@H](O)[C@H](O)[C@H]2O)[C@H]1O
18 | CO[C@H]1O[C@@H](CO[C@H]2S[C@@H](CO)[C@@H](O)[C@H](O)[C@H]2O)[C@@H](O)[C@H](O[C@H]2O[C@@H](CO)[C@@H](O)[C@H](O)[C@H]2O)[C@H]1O
7 | CO[C@H]1O[C@@H](CO[C@H]2O[C@@H](CO)[C@@H](O)[C@H](O)[C@H]2O)[C@@H](O)[C@H](O[C@H]2S[C@@H](CO)[C@@H](O)[C@H](O)[C@H]2O)[C@H]1O
